From US20110262502A1, “PULMONARY DELIVERY OF 17-HYDROXYPROGESTERONE CAPROATE (17-HPC)” (Prairie Pharmaceuticals LLC, priority 2010, published 2011)
Where two headings read alike, the source gives them in different places.

Legend:
[1] = test system: PHA-induced IL-2 release in IL-2 and IL-4 treated (steroid resistant) PBMCs; experiment: IL-2/IL-4 induced steroid resistance model in PBMCs: dexamethasone inhibition of PHA-induced IL-2 release; type: cell-based, human; conditions: Dexamethasone 10^−10 M
Protocol: J Immunol 2009; 183; 164-171). […] Following PBMCs stimulation with mitogen phytohaemagglutinin (PHA), there is a strong correlation between cytokine secretion levels and steroid resistance as well as steroid sensitivity in vitro. Addition of IL-2, IL-4 and TNF-reduce steroid sensitivity.
(§1) PBMCs (2×10^6) were incubated with or without IL-2 (13 ng/ml) and IL-4 (6.5 ng/ml) for 48 hours in RPMI-1640 medium containing 10% FCS and 2 mM glutamine. […] IL-2 and IL-4 stimulated PBMCs were also plated at a concentration of 10^6 cells/ml in 96-well plates ready for PHA (15 μg/mL, 24 hours) stimulation of cytokine release and detection by ELISA.
IL-2/4 induced steroid resistance in PBMCs, a well-recognized study model, was used to evaluate potential modifiers of steroid resistance and sensitivity. PBMCs from healthy smokers were collected. Corticosteroid insensitivity or resistance was induced by adding IL-2 and IL-4 in peripheral blood mononuclear cells (PBMCs) from healthy male smokers (n=˜11). […] IL-2 levels were quantified using ELISA.
J Immunol 2009; 183; 164-171).
(§2) IL-2 levels were quantified using ELISA.

[2] = test system: PHA-induced IL-2 production in PBMCs; experiment: PHA-induced IL-2 production in PBMCs from healthy male smokers (no IL-2/IL-4 added), ELISA; type: cell-based, human; conditions: for inhibition at 0.01 µM / inhibition at 10 µM / inhibition at 0.0001 µM: Homo sapiens, PBMC
Protocol: PBMCs were isolated from human blood buffy coats provided by a regional blood center. Random buffy coat cells from male donors were a by-product of blood processed for clinical use and no details (i.e., personal identification and background) were provided except for tobacco use. […] PBMCs were separated using a porous high density polyethylene barrier (HISTOPAQUE from GEHealthcare Bio-Sciences AB (US). After centrifugation of blood samples in each tube (35 minutes at 800×g at room temperature, or RT), PBMCs were collected and washed twice with Hank's buffered saline solution (HBSS). PBMCs were resuspended in RPMI-1640 medium containing 10% fetal calf serum (FCS) and 15 mM glutamine and cells were counted and plated.
as §1
Serial dilutions of standards and PBMCs' supernatants were measured by enzyme linked immunosorbent assay to determine IL-2 at baseline and its levels after 17HPC, P4 and MAP treatments. Optical density was measured at 450 nm and corrected with 550 nm. The concentration of TL-2 was calculated using the standard curve and taking into account the supernatant dilution used. Detection limit for IL-2 is 4.0 pg/ml.
Data are expressed as mean±SD. The efficacies of the drug treatments were analyzed by paired t-test. One-way analysis of variance was used to compare three or more matched groups and 95% CI was performed to present groups differences. All graphs indicate mean values of results or % inhibition of PHA-stimulated IL-2. IC50 values were calculated by using a sigmoidal model (BioDataFit). A p value <0.05 was considered statistically significant.
as §2
IL-2 levels were quantified using ELISA. IC50 values were calculated by using a sigmoidal model (BioDataFit).
as §2, §2, §2

[3] = test system: females with severe asthma; conditions: sublingual; sixteen patients; cited from earlier work
[4] = test system: mitogen-activated protein kinase; conditions: rat uterine smooth muscle; cited from earlier work
[5] = test system: patients with severe premenstrual exacerbations of asthma; conditions: intramuscular, added to regimen incl. corticosteroids; 3 cases; cited from earlier work
[6] = read-out: % inhibition of PHA-induced IL-2 production
[7] = MPA 10^−5M + Dexamethasone 10E−8M
[8] = MPA 10^−8M + Dexamethasone 10E−8M
[9] = MPA 10^−8M + Dexamethasone 10E−11M
[10] = MPA 10^−10M + Dexamethasone 10E−8M
[11] = P4 10^−5M + Dexamethasone 10E−8M
[12] = P4 10^−8M + Dexamethasone 10E−8M
[13] = P4 10^−8M + Dexamethasone 10E−11M
[14] = P4 10^−10M + Dexamethasone 10E−8M

Question: With `CC(=O)O[C@]1(C(C)=O)CC[C@H]2[C@@H]3C[C@H](C)C4=CC(=O)CC[C@]4(C)[C@H]3CC[C@@]21C` [MPA, MEDROXYPROGESTERONE ACETATE] as the compound, how does the “improvement in corticosteroid sensitivity, responding sub-group” value ([1]; FIG. 9) read?
Answer: The value was “up to 58%”.

Question: What about the “reduction (worsening) in corticosteroid sensitivity, other sub-group” value ([1]; FIG. 9) of the same compound?
Answer: The value was “up to 88%”.

Question: What about the inhibition at 0.01 µM [2] of the same compound?
Answer: The inhibition at 0.01 µM was 78%.

Question: What about the inhibition at 10 µM [2] of the same compound?
Answer: Its inhibition at 10 µM is 95%.

Question: What about the inhibition at 0.0001 µM [2, 6] of the same compound?
Answer: The inhibition at 0.0001 µM was 73%.

Question: What about the inhibition at 0.0001 µM ([2]; read-out: IL-2 inhibition) of the same compound?
Answer: The inhibition at 0.0001 µM was at least 86%.

Question: And the “% inhibition of PHA-induced IL-2 production” value (from here on “% inhibition”) [2, 7]?
Answer: The value was “(98%)”.

Question: And the “mean IL-2” value [2, 7]?
Answer: Its value is 12.3 pg/mL.

Question: What about the “mean IL-2” value ([2]; MPA 10^−5M, PHA, no Dexamethasone) of the same compound?
Answer: Its value is 39.8 pg/mL.

Question: And the “% inhibition” value [2, 8]?
Answer: The value was 96%.

Question: What about the “mean IL-2” value [2, 8] of the same compound?
Answer: Its value is 29.2 pg/mL.

Question: And the “% inhibition” value [2, 9]?
Answer: The value was “(83%)”.

Question: And the “mean IL-2” value [2, 9]?
Answer: Its value is 129.1 pg/mL.

Question: What about the “mean IL-2” value ([2]; MPA 10^−8M, PHA, no Dexamethasone) of the same compound?
Answer: The value was 166.9 pg/mL.

Question: What about the “% inhibition” value [2, 10] of the same compound?
Answer: Its value is “(94%)”.

Question: And the “mean IL-2” value [2, 10]?
Answer: The value was 44.7 pg/mL.

Question: What about the “mean IL-2” value ([2]; MPA 10^−10M, PHA, no Dexamethasone) of the same compound?
Answer: Its value is 206.1 pg/mL.

Question: For `CC(=O)[C@H]1CC[C@H]2[C@@H]3CCC4=CC(=O)CC[C@]4(C)[C@H]3CC[C@]12C` [P4, Progesterone], which “patients with an increase in both FEV1 and FVC” value [3] is on record?
Answer: Its value is 50%.

Question: What about the “patients with an increase of 27% or greater in PEF” value [3] of the same compound?
Answer: Its value is 50%.

Question: And the “patients with bronchodilator effect (greater than 12% increase) in either FEV1 or FVC” value [3]?
Answer: The value was 75%.

Question: And the “subjects with more than 10% improvement in maximal Dexamethasone inhibition” value ([1]; FIGS. 7-8)?
Answer: The value was 6 out of 8.

Question: And the “effect on MAPK tyrosine phosphorylation and membrane-associated MAPK activity” value [4]?
Answer: Its value is “increased MAPK tyrosine phosphorylation and membrane-associated MAPK activity”.

Question: What about the “effect on premenstrual fall in peak flow rate” value [5] of the same compound?
Answer: The value was “eliminated the premenstrual dips in peak flow”.

Question: What about the inhibition at 0.01 µM [2] of the same compound?
Answer: The inhibition at 0.01 µM was 36%.

Question: And the inhibition at 10 µM [2]?
Answer: Its inhibition at 10 µM is 85%.

Question: And the inhibition at 0.0001 µM [2, 6]?
Answer: Its inhibition at 0.0001 µM is 34%.

Question: What about the inhibition at 0.0001 µM ([2]; read-out: IL-2 inhibition) of the same compound?
Answer: Its inhibition at 0.0001 µM is at least 86%.

Question: And the “% inhibition” value [2, 11]?
Answer: The value was “(89%)”.

Question: What about the “mean IL-2” value [2, 11] of the same compound?
Answer: Its value is 81.2 pg/mL.

Question: And the “mean IL-2” value ([2]; P4 10^−5M, PHA, no Dexamethasone)?
Answer: The value was 113.8 pg/mL.

Question: What about the “% inhibition” value [2, 12] of the same compound?
Answer: The value was “(88%)”.

Question: And the “mean IL-2” value [2, 12]?
Answer: Its value is 91.4 pg/mL.

Question: What about the “% inhibition” value [2, 13] of the same compound?
Answer: Its value is “(87%)”.

Question: What about the “mean IL-2” value [2, 13] of the same compound?
Answer: Its value is 100.8 pg/mL.

Question: And the “mean IL-2” value ([2]; P4 10^−8M, PHA, no Dexamethasone)?
Answer: The value was 486.2 pg/mL.

Question: And the “% inhibition” value [2, 14]?
Answer: The value was “(92%)”.

Question: What about the “mean IL-2” value [2, 14] of the same compound?
Answer: The value was 59.6 pg/mL.

Question: And the “mean IL-2” value ([2]; P4 10^−10M, PHA, no Dexamethasone)?
Answer: The value was 506.9 pg/mL.

Question: With estradiol-17 beta [estrogen] as the compound, how does the “effect on MAPK tyrosine phosphorylation and membrane-associated MAPK activity” value [4] read?
Answer: The value was “increased MAPK tyrosine phosphorylation and membrane-associated MAPK activity”.
